Measurements as given in ChEMBL document CHEMBL1201862, “PubChem BioAssay data set” (2004).
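Grown in 96-well plates, cells were treated for 48 hours with each compound at five concentrations. Insufficient inhibition: endpoint recorded as highest concentration tested. Here, GI50 denotes the concentration required for 50% inhibition of growth.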 Active and inactive are the calls of the source. Cut-off read from the data, not from the text of the source: active = GI50 up to about 1.1 µM and inactive = higher.

Experiments:
Experiment in all cases: NCI-60 cell line screen, 48 h
[1] = tested on: PC-3
[2] = tested on: A498
[3] = tested on: EKVX
[4] = tested on: IGROV-1
[5] = tested on: SK-OV-3
[6] = tested on: SK-MEL-28
[7] = tested on: LOX IMVI
[8] = tested on: M14
[9] = tested on: SNB-19
[10] = tested on: HOP-62
[11] = tested on: MDA-MB-435
[12] = tested on: CCRF-CEM
[13] = tested on: SN12C
[14] = tested on: SK-MEL-2
[15] = tested on: OVCAR-4
[16] = tested on: COLO 205
[17] = tested on: SF-268
[18] = tested on: HL-60
[19] = tested on: OVCAR-3
[20] = tested on: NCI-H460

| SMILES | GI50 [1] | GI50 [2] | GI50 [3] | GI50 [4] | GI50 [5] | GI50 [6] | GI50 [7] | GI50 [8] | GI50 [9] | GI50 [10] | GI50 [11] | GI50 [12] | GI50 [13] | GI50 [14] | GI50 [15] | GI50 [16] | GI50 [17] | GI50 [18] | GI50 [19] | GI50 [20] |
| --- | --- | --- | --- | --- | --- | --- | --- | --- | --- | --- | --- | --- | --- | --- | --- | --- | --- | --- | --- | --- |
| CN(C)CC1CN/C(=N\C(=O)Nc2ccccc2)O1 (stereo not given) | > 100 µM (inactive) | 42.3 µM (inactive) | > 100 µM (inactive) | > 100 µM (inactive) | > 100 µM (inactive) | > 100 µM (inactive) | > 100 µM (inactive) | > 100 µM (inactive) | > 100 µM (inactive) | > 100 µM (inactive) | > 100 µM (inactive) | > 100 µM (inactive) | > 100 µM (inactive) | > 100 µM (inactive) | > 100 µM (inactive) | > 100 µM (inactive) | > 100 µM (inactive) | > 100 µM (inactive) | > 10 µM (inactive) | > 100 µM (inactive) |
| CCOC(=O)Oc1cc2c(c(OC)c1OC)-c1ccc(OC)c(=O)cc1C(NC(C)=O)CC2 (stereo not given) | 0.0278 µM (active) | 0.0541 µM (active) | 19.1 µM (inactive) | 0.0208 µM (active) | 0.114 µM (active) | < 0.215 µM (active) | 0.0153 µM (active) | 0.0218 µM (active) | 0.0277 µM (active) | 0.0509 µM (active) | < 0.01 µM (active) | < 0.0122 µM (active) | 0.034 µM (active) | 0.0123 µM (active) | 11.2 µM (inactive) | 0.0185 µM (active) | 0.0197 µM (active) | < 0.0118 µM (active) | 0.0166 µM (active) | 0.0468 µM (active) |
| CC(=O)c1ccc(Br)cc1NC1=CC(=O)c2ncccc2C1=O | 3.95 µM (inactive) | 1.57 µM (inactive) | 6.4 µM (inactive) | 2.69 µM (inactive) | 15.7 µM (inactive) | 6.79 µM (inactive) | 5.79 µM (inactive) | 2.22 µM (inactive) | 3.84 µM (inactive) | 3.47 µM (inactive) | 1.69 µM (inactive) | 3.47 µM (inactive) | 7 µM (inactive) | 4.09 µM (inactive) | 1.83 µM (inactive) | 3.18 µM (inactive) | 7.26 µM (inactive) | 1.64 µM (inactive) | 1.61 µM (inactive) | 1.12 µM (active) |
| O=C(Nc1ccccc1)N(CCCCN(Cc1ccccc1)C(=O)Nc1ccccc1)Cc1ccccc1 | > 100 µM (inactive) | > 100 µM (inactive) | 72.3 µM (inactive) | > 100 µM (inactive) | > 100 µM (inactive) | > 100 µM (inactive) | > 100 µM (inactive) | > 100 µM (inactive) | 38 µM (inactive) | > 100 µM (inactive) | > 100 µM (inactive) | > 100 µM (inactive) | > 100 µM (inactive) | > 100 µM (inactive) | 75.5 µM (inactive) | > 100 µM (inactive) | > 100 µM (inactive) | > 100 µM (inactive) | > 100 µM (inactive) | > 100 µM (inactive) |
| COc1ccc(/N=c2\ssc(C(=S)Nc3ccc(OC)cc3)c2S)cc1 | > 100 µM (inactive) | > 100 µM (inactive) | > 100 µM (inactive) | > 100 µM (inactive) | > 100 µM (inactive) | 6.68 µM (inactive) | > 100 µM (inactive) | 71 µM (inactive) | > 100 µM (inactive) | > 100 µM (inactive) | > 100 µM (inactive) | 31.6 µM (inactive) | > 100 µM (inactive) | > 100 µM (inactive) | > 100 µM (inactive) | > 100 µM (inactive) | > 100 µM (inactive) | 36.3 µM (inactive) | > 100 µM (inactive) | 39.6 µM (inactive) |
| CC1(C)SCc2nc3ccccc3n21 | > 100 µM (inactive) | > 100 µM (inactive) | > 100 µM (inactive) | > 100 µM (inactive) | > 100 µM (inactive) | > 100 µM (inactive) | > 100 µM (inactive) | > 100 µM (inactive) | > 100 µM (inactive) | > 100 µM (inactive) | > 100 µM (inactive) | > 100 µM (inactive) | > 100 µM (inactive) | > 100 µM (inactive) | > 100 µM (inactive) | > 100 µM (inactive) | > 100 µM (inactive) | > 100 µM (inactive) | > 100 µM (inactive) | > 100 µM (inactive) |
